Laboratory results taken from patent US7145032B2, “Therapeutic malonic acid/acetic acid C60 tri-adducts of buckminsterfullerene and methods related thereto” (priority 2002, dated 2006).

Assays:
[1] = Reactivity of C3 with superoxide; assay type: biochemical; settings: calculated
Excerpt: Because many important biological reactions generate reactive oxygen species intentionally, or as unwanted toxic by-products, antioxidant molecules capable of supplementing the antioxidant defenses of cells as potential therapeutic agents are therapeutically useful. […] These novel carboxyfullerene compositions have antioxidant properties.

C57B6 mice [2] = assay type: in vivo; settings: oral C3 from 12 months of age to end of life, versus control
Method: The date of spontaneous death for each mouse was recorded, and used to calculate the lifespan. Lifespan of each mouse was calculated in months because mice received from the NIA rodent colony have their birth month, but not their specific birth date, recorded. Average survival was calculated for each treatment and the mean lifespans were compared using a t-test with significance set to p<0.05 (actual p=0.033).
Twelve month old C57B6NIH male and female mice (equal numbers) were purchased from the National Institute on Aging (NIA) Aging Rodent Colony. Mice shipped from this colony were not selected in any way for health, tumors or other disabilities, and all mice obtained from the colony were subsequently enrolled in the study. […]
Solution A or solution B was placed in the water bottles, and solutions were topped-off twice weekly, and filtered to remove any particulates biweekly by an individual blind to the identity of the solutions. […] Mice were allowed to die spontaneously, and their date of death were recorded by the Animal Housing Facility staff as part of the normal operating procedure of the facility. […] When animals died, the cage number, identity of the animal, and the date of death were recorded on the death notice, which was then sent to the laboratory, where the information was entered into the database.

[3] = Plasma pharmacokinetics and tissue distribution in mice
Excerpt: The above dosing information is based on a pharmokinetics study carried out in mice, toxicity testing in mice and toxicity testing in rats.

Solubility = assay type: physicochemical
Excerpt: The progress of the reaction was monitored by HPLC (Protocol 2).

[4] = Thermal stability in 1:1 acetonitrile:water at 60°; assay type: physicochemical; settings: for Hexa, percent of injected compound (HPLC): 60° C.
Excerpt: The composition was monitored by HPLC, using protocols 2 and 4 (see Table 1).

[5] = Hydration of freeze dried sodium salt; assay type: physicochemical; settings: dry weight divided by expected weight for complete neutralization; freeze dried 4 days
monkeys = settings: one monkey; mean survival 25 months; cited from earlier work
rats = settings: treatment from age 96 weeks to end of life; control 147+/−1; cited from earlier work
Fisher 344 rats [6] = settings: cited from earlier work
Fisher 344 rats [7] = settings: same dose of deprenyl; cited from earlier work
C57B6 mice [8] = settings: chronic treatment starting at 18 months of age; cited from earlier work
Drosophila = settings: controlled study; cited from earlier work

For “e,e,e tris malonic acid C60 [Compound C3]”, the “rate constant of C3 reaction with superoxide” value [1] was 3e+06 M⁻¹ s⁻¹, the “increase in the lifespan” value (C57B6 mice [2]) was “approximately 20%” and the route of clearance [3] was “excretion through both the liver and kidney”. For the same compound, the “tissue levels / distribution” value ([3]; various times after ip administration) was “accumulation through the liver and kidney”, the “Solubility Sodium salt” value (Solubility; calculated for the acid, unit not printed for this column (neighbour: mg/ml)) was >450^6 and the “Solubility Water” value (Solubility; uv of liquid portion of a saturated solution) was >454^6 mg/ml. The “Thermal Stability # of products” value ([4]; 60°) was 10, the “Hexa, percent of injected compound (HPLC)” value (“Hexa, percent” below) ([4]; incubation 5.5 h) was 2.6% and the “Hexa, percent” value ([4]; incubation […]) was 9.2%. The “Hexa, percent” value ([4]; incubation […], 97.4% at 0 h) was 40.5% and the “Hydration of Na salt” value [5] was 1.31.

For `O=CC[C@@H](O)[C@H](O)[C@H](O)CO` [2-deoxyglucose], the “survival of a treated monkey” value (monkeys) is given as 38 months.

In the case of `C#CCN(C)[C@H](C)Cc1ccccc1` [deprenyl], the “lifespan of treated rats” value (rats) is listed as 198+/−2 weeks, the increase in longevity (Fisher 344 rats [6]; not statistically significant) is listed as 7% and the “mean survival of treated animals” value (Fisher 344 rats [6]; treatment from 18 months of age, controls 28 months) is listed as 30 months. For the same compound, the “effect on mortality and lifespan” value (Fisher 344 rats [7]) was “greater mortality and shortened lifespan”, the survival benefit (C57B6 mice [8]) was “failed to show any survival benefit” and the effect on lifespan (Drosophila) was “did not show an increase in lifespan”.
